Key:
full-length P-Rex1 = molecular target: T1, full-length P-Rex1 (Homo sapiens, UniProt Q8TCU6); assay: Liposome-based GEF activity assay, PIP3-stimulated full-length P-Rex1; type: biochemical; details: for effect on PIP3-stimulated Rac-GEF activity of full-length P-Rex1: 1, 5 and 10 µM, Rac1 or Rac2 as substrate
T1 construct: Full-length N-terminally EE-tagged P-Rex1, P-Rex2, the P-Rex1 DH and DHPH domains and the P-Rex2 DH domain were produced in Sf9 cells; made in house; host or cells: Sf9 cells (baculovirus)
T1 sequence (Q8TCU6 whole entry, the tested form may be a part): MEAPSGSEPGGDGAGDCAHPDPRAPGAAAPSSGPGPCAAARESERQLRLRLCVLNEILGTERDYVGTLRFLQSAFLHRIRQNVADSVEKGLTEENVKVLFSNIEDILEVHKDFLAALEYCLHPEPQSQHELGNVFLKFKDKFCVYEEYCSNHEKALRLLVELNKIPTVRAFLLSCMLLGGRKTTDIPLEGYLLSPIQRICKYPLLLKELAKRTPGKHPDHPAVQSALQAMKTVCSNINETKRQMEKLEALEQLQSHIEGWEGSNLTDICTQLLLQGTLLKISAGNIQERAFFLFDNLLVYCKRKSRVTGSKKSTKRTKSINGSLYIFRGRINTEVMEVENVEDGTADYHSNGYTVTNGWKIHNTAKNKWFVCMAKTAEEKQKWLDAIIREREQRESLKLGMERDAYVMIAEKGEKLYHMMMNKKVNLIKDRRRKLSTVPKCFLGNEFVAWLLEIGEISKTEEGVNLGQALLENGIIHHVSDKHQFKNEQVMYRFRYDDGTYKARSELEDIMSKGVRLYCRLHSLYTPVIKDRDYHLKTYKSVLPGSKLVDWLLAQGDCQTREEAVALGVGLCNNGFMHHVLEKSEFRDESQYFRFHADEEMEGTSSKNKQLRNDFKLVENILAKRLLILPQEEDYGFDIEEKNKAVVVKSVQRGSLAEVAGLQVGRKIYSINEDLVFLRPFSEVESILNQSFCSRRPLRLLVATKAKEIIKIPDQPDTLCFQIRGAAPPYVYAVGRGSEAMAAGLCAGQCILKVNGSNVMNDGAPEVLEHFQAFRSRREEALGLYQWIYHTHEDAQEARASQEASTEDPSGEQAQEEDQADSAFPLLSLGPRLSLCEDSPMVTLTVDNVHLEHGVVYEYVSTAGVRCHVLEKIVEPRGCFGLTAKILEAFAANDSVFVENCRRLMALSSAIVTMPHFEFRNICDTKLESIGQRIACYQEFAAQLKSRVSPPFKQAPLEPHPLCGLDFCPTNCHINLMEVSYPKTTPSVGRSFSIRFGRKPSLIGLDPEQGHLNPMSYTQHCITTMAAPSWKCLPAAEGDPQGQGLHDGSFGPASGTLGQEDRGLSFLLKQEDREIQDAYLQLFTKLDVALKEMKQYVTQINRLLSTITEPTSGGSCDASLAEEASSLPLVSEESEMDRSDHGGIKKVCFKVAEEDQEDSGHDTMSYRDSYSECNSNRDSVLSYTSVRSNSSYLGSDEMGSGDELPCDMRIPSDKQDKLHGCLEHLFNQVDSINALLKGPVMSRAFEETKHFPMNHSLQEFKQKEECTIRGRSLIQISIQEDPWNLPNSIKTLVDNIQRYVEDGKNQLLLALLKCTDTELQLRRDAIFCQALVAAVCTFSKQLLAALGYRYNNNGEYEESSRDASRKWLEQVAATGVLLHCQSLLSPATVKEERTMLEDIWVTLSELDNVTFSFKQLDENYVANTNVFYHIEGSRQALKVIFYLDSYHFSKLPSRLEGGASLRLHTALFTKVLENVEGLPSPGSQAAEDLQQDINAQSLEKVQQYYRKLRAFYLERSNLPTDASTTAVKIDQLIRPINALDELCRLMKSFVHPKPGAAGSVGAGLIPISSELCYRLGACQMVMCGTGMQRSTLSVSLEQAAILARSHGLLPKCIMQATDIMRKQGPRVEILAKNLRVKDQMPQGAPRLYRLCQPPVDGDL
Source text: All small GTPases and GEFs used were human recombinant proteins. EE-Rac1, EE-Rac2, GST-Cdc42 or GST-RhoA were expressed in Sf9 cells by baculoviral transduction and purified using their epitope tag in their post-translationally prenylated form using Triton X-114 phase separation, essentially as previously described. Briefly, frozen pellets from a 1 litre culture of Sf9 cells transduced with high-titre baculovirus expressing the small GTPase were resuspended in ice-cold Sf9-cell lysis buffer 1 (1x PBS, 40 mM HEPES pH 7.5 at RT, 5 mM MgCl2, 10 mM EGTA, 300 µM GDP, 1 mM DTT, 200 µM PMSF, 20 μg/ml each of leupeptin, pepstatin A, aprotinin and antipain) and lysed by sonication. Triton X-114 was added (to 1% final concentration), and samples were ultracentrifuged at 118,000 × g for 50 min at 4°C. The supernatant was warmed at 37°C until cloudy (30–60 seconds) and centrifuged at 1300 × g for 2 min at 37°C. The upper phase containing non-lipid modified GTPase was discarded and replaced with ice-cold Sf9-cell lysis buffer. The warming/centrifugation steps were repeated twice and lipid-modified GTPase resuspended in ice-cold Sf9-cell lysis buffer 1 supplemented with Triton X-100 (1% final concentration), followed by ultracentrifugation at 118,000 × g for 50 min at 4°C. For EE-tagged GTPases, supernatants were incubated with anti-EE antibody covalently coupled to protein G-Sepharose beads (anti-EE beads, Onyx Pharmaceuticals) and incubated with end-over-end rotation for 90 min on ice. Beads were washed 3 times in wash buffer (PBS, 5 mM MgCl2, 1 mM DTT, 10 μM GDP, 1 mM EGTA, 0.2% Triton X-100) and 5x in elution buffer (40 mM HEPES pH 7.5, 150 mM NaCl, 5 mM MgCl2, 1 mM EGTA, 1 mM DTT, 10 µM GDP). Protein was eluted by three incubations with elution buffer containing peptide Ac-EEYMPME (Activotec, Comberton, UK) and cholate (first 1%, then twice 0.5%) for 20 min on ice. For GST-tagged GTPases, supernatants were incubated with glutathione Sepharose beads and were eluted with glutathione in the same manner. Proteins were concentrated in a YM-10 Centricon (Millipore) at 5000 × g, 4°C. Protein concentration and purity was determined by coomassie staining of SDS-PAGE gels. For use in the mant-GTP assay, EE-Rac 1 was expressed in BL21 (DE3) bacteria (NEB, C25271), by induction with 0.5 mM IPTG overnight at 18°C. Bacterial pellets from 500 ml cultures were resuspended in 20 ml bacterial lysis buffer (40 mM Hepes, pH 7.5 at 4°C, 150 mM NaCl, 1% Triton X-100, 5 mM MgCl2, 1 mM DTT, 300 μM GDP, 200 µM PMSF, and 20 μg/ml each of leupeptin, pepstatin A, aprotinin and antipain) and were lysed by sonication. 5 μg/ml DNAse and 5 μg/ml RNAse were added and the lysate incubated on ice for 10 min. […]

Rac1 or Rac2 = assay: Basal GTP-loading of Rac in the absence of P-Rex1 (liposome-based assay); type: biochemical, human; details: 10 µM
Source text: All small GTPases and GEFs used were human recombinant proteins. EE-Rac1, EE-Rac2, GST-Cdc42 or GST-RhoA were expressed in Sf9 cells by baculoviral transduction and purified using their epitope tag in their post-translationally prenylated form using Triton X-114 phase separation, essentially as previously described. Briefly, frozen pellets from a 1 litre culture of Sf9 cells transduced with high-titre baculovirus expressing the small GTPase were resuspended in ice-cold Sf9-cell lysis buffer 1 (1x PBS, 40 mM HEPES pH 7.5 at RT, 5 mM MgCl2, 10 mM EGTA, 300 µM GDP, 1 mM DTT, 200 µM PMSF, 20 μg/ml each of leupeptin, pepstatin A, aprotinin and antipain) and lysed by sonication. Triton X-114 was added (to 1% final concentration), and samples were ultracentrifuged at 118,000 × g for 50 min at 4°C. The supernatant was warmed at 37°C until cloudy (30–60 seconds) and centrifuged at 1300 × g for 2 min at 37°C. The upper phase containing non-lipid modified GTPase was discarded and replaced with ice-cold Sf9-cell lysis buffer. The warming/centrifugation steps were repeated twice and lipid-modified GTPase resuspended in ice-cold Sf9-cell lysis buffer 1 supplemented with Triton X-100 (1% final concentration), followed by ultracentrifugation at 118,000 × g for 50 min at 4°C. […] Protein concentration and purity was determined by coomassie staining of SDS-PAGE gels. […]

SMILES | reduction of PIP3-stimulated Rac-GEF activity of full-length P-Rex1 (full-length P-Rex1; 10 µM, 50 nM P-Rex1, 100 nM prenylated Rac1, 10 µM PIP3) | effect on PIP3-stimulated Rac-GEF activity of full-length P-Rex1 (full-length P-Rex1) | effect on basal GTP-loading of Rac1 or Rac2 in the absence of P-Rex1 (Rac1 or Rac2)
COc1ccc(-c2[nH]nc3c2C(c2ccc(-c4ccc(Cl)cc4)o2)C(C#N)=C(N)O3)cc1 (centres unmarked) [PREX-in1, 6-amino-4-[5-(4-chlorophenyl)-2-furyl]-3-(4-methoxyphenyl)-2,4-dihydropyrano[2,3-c]pyrazole-5-carbonitrile] | 56% | inhibited | neither compound affected
CC1CCC(C(C)C)c2nn(C(=O)/C=C\c3ccccc3)c(-c3cccc4ccccc34)c21 (centres unmarked) [#10] | – | inhibited | neither compound affected

From article PMC9645260, “Small-molecule inhibitors of P-Rex guanine-nucleotide exchange factors” (Small GTPases, 2022)
